Results as given in PMC5830749, “Bifunctional fluorescent probes for detection of amyloid aggregates and reactive oxygen species” (Royal Society Open Science, 2018).
Where a name gives a salt, the structure may show the parent alone. Read-outs that look alike come from different tables or passages of the source.

Columns and labels:
[1] = target: T1, αSyn aggregates (Homo sapiens, UniProt P37840); assay: Surface plasmon resonance equilibrium affinity to immobilized αSyn aggregates; type: binding; parameters: made in house; host or cells: Escherichia coli; details: SPR, 25°C, before incubation with H2O2
[2] = LCMS analysis of the reaction of the dyes with H2O2 in PBS; type: physicochemical; details: for dye molecules converted into the phenol: 1 hour incubation with 100 µM H2O2, PBS
Method: Next, the change in bulk fluorescence emission was assessed upon addition of H2O2 at a concentration realistic for cellular oxidative stress (100 µM). […] Furthermore, the kinetics could be followed, with all fluorescence traces increasing at varying rates in a linear regime over a 5 h period (figure 2c). As the oxidation reaction is predominantly irreversible, these sensors record the total ROS exposure to a system, rather than the equilibrium value. […] These measurements confirmed that the change in fluorescence intensity arose from the conversion of the boronic ester into the hydroxyl functionality. By contrast, no significant change in the chemical composition of the dye solutions occurred over the same time frame without addition of H2O2 (electronic supplementary material, figure S4).
LCMS analysis of the reaction of the dyes with H2O2 was performed using a Waters Acquity H-class UPLC coupled with a single quadrupole Waters SQD2. ACQUITY UPLC CSH C18 Column, 130 Å, 1.7 µm, 2.1 mm × 50 mm was used as the UPLC column. The conditions of the UPLC method are as follows:
Solvent A: Water +0.1% Formic acid; Solvent B: Acetonitrile +0.1% Formic acid; Gradient of 0-4 minutes 5% - 100%B + 1 minute 100% B with re-equilibration time of 2 minutes. Flow rate: 0.6 ml/min; Column temperature of 40 °C; Injection volume of […]. The signal was monitored at 254 nm.
Samples were prepared by diluting the stock solutions of the BE and mBE compounds (prepared as previously described) into PBS (pH 7.4) to a concentration of 30 µM. The diluted dye solutions were analysed via LCMS directly after dilution (t = 0 hour) as well as 1 hour after dilution (t = 1 hour) (Supplementary Table 1). To proof the oxidative cleavage of the boronic esters to a phenol triggered by H2O2, the diluted dye solutions were exposed to 100 µM H2O2 and analysed via LCMS after 1 hour of incubation (Supplementary Table 1).

[3] = target: T1, αSyn aggregates; assay: SAVE (TIRF) single-aggregate fluorescence imaging, density of detected aggregates; parameters: made in house; host or cells: Escherichia coli
Method: Fluorescence imaging experiments were carried out with a bespoke inverted microscope (Nikon, Eclipse, TE2000-U) set-up optimized for TIRF measurements. […] Images were recorded at 100 ms exposure for 200 frames using automation through Micro-manager software.
Images were analysed with a bespoke ImageJ [41] macro. […] Pixels of intensity above background were determined with a fixed threshold and αSyn aggregate species in each field of view identified and counted. […] Five fields of view in the presence of H2O2 and five in the absence of H2O2 were analysed for each dye. Error bars represent the standard deviations of the species density between the five fields of view.

[4] = target: H2O2 and αSyn aggregates (Homo sapiens, UniProt P37840); details: 100 µM H2O2 (60 min) and approx. 10 µM αSyn aggregates, dye 5 µM
[5] = Bulk fluorescence response of dyes to H2O2; details: for increase in bulk fluorescence upon addition of H2O2: 100 µM H2O2, dye 5 µM, PBS pH 7.4, relative to free dye; for gradient of fluorescence intensity versus time curve: dyes incubated with H2O2, recorded over 5 h at 20 min intervals
Method: Next, the change in bulk fluorescence emission was assessed upon addition of H2O2 at a concentration realistic for cellular oxidative stress (100 µM) [31]. […] As the oxidation reaction is predominantly irreversible, these sensors record the total ROS exposure to a system, rather than the equilibrium value.

[6] = Bulk photophysical properties of free dyes in PBS; details: free dye; for Stokes shift (λem − λabs) / brightness (ε × ΦFl) / maximum absorption wavelength (λabs) / maximum emission wavelength (λem) / molar extinction coefficient ε: PBS pH 7.4; for fluorescence quantum yield ΦFl: PBS pH 7.4, relative to a standard
Method: Several photophysical quantities were determined from ensemble absorption and emission data, using techniques previously described [38]. These included absorption maxima (λAbs), emission maxima (λEm) Stokes shift, molar extinction coefficient (ε) and fluorescence quantum yield (ΦFl).

[7] = target: T1, αSyn aggregates; assay: Bulk fluorescence response of dyes to preformed αSyn aggregates; parameters: made in house; host or cells: Escherichia coli; details: approx. 10 µM preformed αSyn aggregates, dye 5 µM, PBS pH 7.4
[8] = target: T1, αSyn aggregates; assay: Limit of detection of oxidized probes by SAVE imaging; details: first dye concentration deviating from mean background by 3 s.d.
Method: To quantify this process, we determined the number of detectable aggregates, before and after addition of H2O2 and assumed constant surface coverage. […] The limit of detection (LOD) of oxidized BE (BE-Ox) and mBE (mBE-Ox) probes to αSyn aggregates was determined using SAVE imaging (electronic supplementary material, figure S8).
Glass cover-slides for SAVE fluorescence imaging were cleaned for 1 h using an argon plasma (PDC-002, Harrick Plasma) and the slide surface incubated with poly-L-lysine (PLK) for 30 min as previously described [13]. […] The working solution (50 µl) was added to the clean, PLK coated cover-slide and incubated for 2 min. The slide was then washed twice with PBS and imaged. H2O2 (100 µM) was then added directly to the cover-slide and the sample imaged again.

[9] = cited from earlier work
[10] = 30 µM in PBS pH 7.4, 60 minutes with 100 μM H2O2, UV 254 nm
[11] = 30 µM in PBS pH 7.4, time point 0 minutes, no H2O2, UV 254 nm
[12] = 30 µM in PBS pH 7.4, time point 60 minutes, no H2O2, UV 254 nm
[13] = after addition of 100 µM H2O2 (post-oxidation)
[14] = before addition of H2O2 (pre-oxidized)

SMILES | Hydrolyzed (boronic acid derivative) Rel. Area [2, 10] [%] | Oxidized (phenol derivative) Rel. Area [2, 10] [%] | Hydrolyzed (boronic acid derivative) Rel. Area [2, 11] [%] | Hydrolyzed (boronic acid derivative) Rel. Area [2, 12] [%] | dye molecules converted into the phenol [2] [%] | density of single αSyn aggregate species detected [3, 13] [aggregates/µm^2] | density of single αSyn aggregate species detected [3, 14] [aggregates/µm^2] | 'compounded' increase in fluorescence with H2O2 and αSyn aggregates together [4] | Stokes shift (λem − λabs) [6] [nm] | brightness (ε × ΦFl) [6] [M⁻¹ cm⁻¹] | maximum absorption wavelength (λabs) [6] [nm] | maximum emission wavelength (λem) [6] [nm] | molar extinction coefficient ε [6] | fluorescence quantum yield ΦFl [6] | increase in bulk fluorescence upon addition of H2O2 [5] | gradient of fluorescence intensity versus time curve [5] [min⁻¹] | also measured
COc1ccc2c(c1)sc(-c1ccc(B3OCC(C)(C)CO3)cc1)[n+]2C.F[B-](F)(F)F [mBE02, 2-(4-(5,5-Dimethyl-1,3,2-dioxaborinan-2-yl)phenyl)-6-methoxy-3-methylbenzo[d]thiazol-3-ium tetrafluoroborate] | 12 | 70 | 100 | 100 | 88 | 0.0060 ± 0.0005 | 0.006 ± 0.001 | no additional change in fluorescence | 87 | 148 | 330 | 417 | 14 800 M^−1 cm^−1 | 0.01 | 3.6 fold | 0.015 | Kd [1]: 33.5 ± 3.9 µM; Oxidized, de-methylated Rel. Area [2, 10]: 18.63%; increase in fluorescence intensity upon addition of αSyn aggregates [7]: 3.8 fold
Cc1ccc2c(c1)sc(-c1ccc(N(C)C)cc1)[n+]2C [ThT, thioflavin t, reference compound] |  |  |  |  |  | 0.026 ± 002 | 0.025 ± 0.004 | no change in fluorescence |  | 15 | 412 | 486 | 37 500 M^−1 cm^−1 | 0.00 | no change |  | limit of detection (LOD) to αSyn aggregates [8]: 2.40 ± 0.64 µM
C=C[C@H]1C[N@@]2CC[C@H]1C[C@H]2[C@H](O)c1ccnc2ccc(OC)cc12 [quinine sulfate] |  |  |  |  |  |  |  |  |  |  |  |  |  |  |  |  | ΦFl of reference standard ([9]; in 0.1 M H2SO4): 0.5
O=C(O)c1ccccc1C1=c2cc3c4c(c2Oc2c1cc1c5c2CCCN5CCC1)CCC[N+]=4CCC3.[Cl-] [rhodamine 101] |  |  |  |  |  |  |  |  |  |  |  |  |  |  |  |  | ΦFl of reference standard ([9]; in ethanol): 1
COc1ccc2c(c1)sc(-c1ccc(B3OC(C)(C)C(C)(C)O3)cc1)[n+]2C.F[B-](F)(F)F [mBE01, 6-Methoxy-3-methyl-2-(4-(4,4,5,5-tetramethyl-1,3,2-dioxaborolan-2-yl)phenyl)benzo[d]thiazol-3-ium tetrafluoroborate] | 27 | 64 | 100 | 100 | 73 | 0.0051 ± 0.0004 | 0.0040 ± 0.0004 | no additional change in fluorescence | 87 | 168 | 330 | 417 | 16 800 M^−1 cm^−1 | 0.01 | 16.0 fold | 0.011 | Kd [1]: 35.2 ± 5.7 µM; Oxidized, de-methylated Rel. Area [2, 10]: 9.47%; increase in fluorescence intensity upon addition of αSyn aggregates [7]: 7.1 fold

Second part, led by results:

Hydrolyzed (boronic acid derivative) Rel. Area [2, 10] [%] | Oxidized (phenol derivative) Rel. Area [2, 10] [%] | Hydrolyzed (boronic acid derivative) Rel. Area [2, 11] [%] | Hydrolyzed (boronic acid derivative) Rel. Area [2, 12] [%] | dye molecules converted into the phenol [2] [%] | density of single αSyn aggregate species detected [3, 13] [aggregates/µm^2] | density of single αSyn aggregate species detected [3, 14] [aggregates/µm^2] | 'compounded' increase in fluorescence with H2O2 and αSyn aggregates together [4] | Stokes shift (λem − λabs) [6] [nm] | brightness (ε × ΦFl) [6] [M⁻¹ cm⁻¹] | maximum absorption wavelength (λabs) [6] [nm] | maximum emission wavelength (λem) [6] [nm] | molar extinction coefficient ε [6] | fluorescence quantum yield ΦFl [6] | SMILES | increase in bulk fluorescence upon addition of H2O2 [5] | gradient of fluorescence intensity versus time curve [5] [min⁻¹] | also measured
10 | 90 | 100 | 100 | 90 |  |  |  | 82 | 168 | 330 | 412 | 4200 M⁻¹ cm⁻¹ | 0.04 | COc1ccc2nc(-c3ccc(B4OCC(C)(C)CO4)cc3)sc2c1 [BE02, 2-(4-(5,5-dimethyl-1,3,2-dioxaborinan-2-yl)phenyl)-6-methoxybenzo[d]thiazole] |  | 0.017 | 
 | 100 | 65 | 47 | 100 |  |  |  | 86 | 384 | 330 | 416 | 6400 M⁻¹ cm⁻¹ | 0.06 | COc1ccc2nc(-c3ccc(B4OC(C)(C)C(C)(C)O4)cc3)sc2c1 [BE01, 6-methoxy-2-(4-(4,4,5,5-tetramethyl-1,3,2-dioxaborolan-2-yl)phenyl)benzo[d]thiazole] | 2.0 fold | 0.112 ± 0.002 | Boronate ester Rel. Area [2, 11]: 35%; Boronate ester Rel. Area [2, 12]: 53%; H2O2 concentration detected ([5]; 5 µM dye, 5 h incubation with 0-100 µM H2O2): greater than 1 µM
